US12606520B2, “Calpain-2 inhibitor compounds and methods of treatment” (WESTERN UNIVERSITY OF HEALTH SCIENCES, priority 2020, dated 2026)
Where two headings read alike, the source gives them in different places.

Columns and labels:
[1] = PK in mice after iv injection of liposomal NA112: brain; assay type: in vivo; conditions: mouse; for concentration at 1 min / concentration at 5 min / concentration at 0.25 h / concentration at 0.5 hr / concentration at 1 hr / concentration at 2 h / concentration at 4 h / concentration at 8 h / concentration at 16 h: iv, 10 mg/kg, mice iv 10 mg/kg liposomes; for concentration at 1 min: 0.0167 hr; for concentration at 5 min: 0.0833 hr
Protocol: NA112 was prepared in liposomes at a concentration of 1.5 mg/ml. Mice were injected in the tail vein with 200 μl of NA112 in liposomes (corresponding to a dose of 10 mg/kg) and were sacrificed at the following time-points: 1, 5, 15, 30 min, 1, 2, 4, 8, 16 and 24 h. Blood was collected and plasma rapidly prepared by centrifugation. Brains were also collected. NA112 in plasma and in brain homogenates was assayed with LC/Ms and the sensitivity of the assay was 1 ng/ml. Experiments were performed in duplicate (A1 and A2 in Table 3). Results were averaged for preparing the figure and calculating the half-life of NA112 in plasma and in brain.
Data from table 4 are plotted as a function of time. While the curve is not easily fitted with a 2-compartment model, the slower component appears to have a half-life of about 3 h.

[2] = Stability in mouse liver homogenate (residual inhibition of purified human calpain-2); assay type: in vitro ADME; conditions: B-cyclodextrin formulation, read-out: Estimated half-life in mouse liver homogenate (converted)
Protocol: Aliquots were taken and the degree of inhibition of purified human calpain-2 was measured. Results were normalized to the maximum degree of inhibition (100%) measured at t0.

[3] = molecular target: T1, recombinant human calpain-2 (hcalpain-2) (Homo sapiens, UniProt P17655); assay: Inhibition of recombinant human calpain-2; assay type: biochemical
T1 sequence (P17655 1-700): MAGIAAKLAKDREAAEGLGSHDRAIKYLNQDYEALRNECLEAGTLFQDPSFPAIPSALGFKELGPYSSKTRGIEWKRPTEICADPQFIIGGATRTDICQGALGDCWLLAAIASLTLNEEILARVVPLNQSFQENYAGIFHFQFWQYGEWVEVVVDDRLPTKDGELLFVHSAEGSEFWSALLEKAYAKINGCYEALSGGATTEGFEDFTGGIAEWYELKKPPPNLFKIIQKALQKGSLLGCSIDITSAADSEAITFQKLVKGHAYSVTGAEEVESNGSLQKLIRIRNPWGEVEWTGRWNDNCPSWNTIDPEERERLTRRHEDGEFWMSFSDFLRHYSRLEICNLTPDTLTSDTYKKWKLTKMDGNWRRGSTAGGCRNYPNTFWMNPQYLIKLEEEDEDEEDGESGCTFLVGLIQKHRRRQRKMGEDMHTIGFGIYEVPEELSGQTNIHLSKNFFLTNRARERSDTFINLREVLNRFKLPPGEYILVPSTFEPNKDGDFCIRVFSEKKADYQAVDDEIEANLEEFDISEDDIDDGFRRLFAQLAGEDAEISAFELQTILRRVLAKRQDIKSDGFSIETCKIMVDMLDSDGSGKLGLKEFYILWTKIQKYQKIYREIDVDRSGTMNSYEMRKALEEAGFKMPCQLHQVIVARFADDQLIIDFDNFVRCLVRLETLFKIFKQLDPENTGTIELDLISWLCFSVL
T1 sequence (P04632 1-268 partner): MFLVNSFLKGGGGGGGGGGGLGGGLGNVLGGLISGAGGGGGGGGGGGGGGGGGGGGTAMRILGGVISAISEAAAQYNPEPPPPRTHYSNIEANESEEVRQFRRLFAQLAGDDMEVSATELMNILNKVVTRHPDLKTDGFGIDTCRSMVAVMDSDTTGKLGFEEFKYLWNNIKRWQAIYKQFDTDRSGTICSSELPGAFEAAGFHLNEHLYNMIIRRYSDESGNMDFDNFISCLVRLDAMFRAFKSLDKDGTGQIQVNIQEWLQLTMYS
Protocol: Various concentrations of NA112 in the liposomal formulation were incubated with human calpain-1 (purified from erythrocytes, ecalpain-1) or a recombinant human calpain-2 (hcalpain-2) and calpain activity assayed as in FIG. 1. IC50 were determined and transformed into Ki values (FIG. 10A, 10B). Values previously obtained with NA112 dissolved in DMSO are shown for comparison (FIG. 10B).
Cerebellar homogenates from wild-type (WT) or calpain-1 Knock-out (KO) mice were incubated with 20 μM calcium to activate calpain-1 or with 2 mM calcium to activate calpain-2, respectively, and increasing concentrations of NA184.
Like in NA112, there are 2 chiral centers in NA184. The inhibitory activity of the compounds NA184A (S-S isomer) and NA184B (S-R stereoisomer) against erythrocyte human calpain-1 (ecalpain-1) and recombinant human calpain-2 (hcalpain-2) were determined.

[4] = read-out: Brain concentration A1
[5] = read-out: Brain concentration A2
[6] = read-out: Brain concentration Mean

CCC(NC(=O)[C@H](CC(C)C)NC(=O)NCc1ccccc1)C(=O)C(=O)NCc1cc(OC)cc(OC)c1 (mixture of isomers) [NA112, (2S)-2-(3-benzylureido)-N-(1-((3,5-dimethoxybenzyl)amino)-1,2-dioxopentan-3-yl)-4-methylpentanamide]
concentration at 1 min [1, 4]: 520 ng/mL | concentration at 1 min [1, 5]: 305 ng/mL | concentration at 1 min [1, 6]: 412 ng/mL | concentration at 5 min [1, 4]: 168 ng/mL | concentration at 5 min [1, 5]: 129 ng/mL | concentration at 5 min [1, 6]: 149 ng/mL | concentration at 0.25 h [1, 4]: 106 ng/mL | concentration at 0.25 h [1, 5]: 62.3 ng/mL | concentration at 0.25 h [1, 6]: 84.4 ng/mL | concentration at 0.5 hr [1, 4]: 60.6 ng/mL | concentration at 0.5 hr [1, 5]: 63.4 ng/mL | concentration at 0.5 hr [1, 6]: 62 ng/mL | concentration at 1 hr [1, 4]: 45.6 ng/mL | concentration at 1 hr [1, 5]: 48.4 ng/mL | concentration at 1 hr [1, 6]: 47 ng/mL | concentration at 2 h [1, 4]: 25.9 ng/mL | concentration at 2 h [1, 5]: 30.9 ng/mL | concentration at 2 h [1, 6]: 28.4 ng/mL | concentration at 4 h [1, 4]: 14 ng/mL | concentration at 4 h [1, 5]: 21.3 ng/mL | concentration at 4 h [1, 6]: 17.6 ng/mL | concentration at 8 h [1, 4]: 19.5 ng/mL | concentration at 8 h [1, 5]: 15.4 ng/mL | concentration at 8 h [1, 6]: 17.4 ng/mL | concentration at 16 h [1, 4]: 6.65 ng/mL | concentration at 16 h [1, 5]: 9.41 ng/mL | concentration at 16 h [1, 6]: 8.03 ng/mL | half-life ([1]; mice, iv 10 mg/kg in liposomes, read-out: Half-life of slower component in brain (converted)): ~180 min | half-life [2]: 900 min

CCC(NC(=O)[C@H](CC(C)C)NC(=O)NCc1ccccc1)C(=O)C(=O)NCc1cccc(Cl)c1OC (stereo partly drawn) [NA184, (2S)-2-(3-benzylureido)-N-(1-((3-chloro-2-methoxybenzyl)amino)-1,2-dioxopentan-3-yl)-4-methylpentanamide]
IC50 [3]: 85 nM | Ki [3]: 54 nM
